Values of other authors, collected in patent US7368441B2, “Method of increasing intracellular concentrations of phosphate and increasing the force of muscular contractions” (Aplodan Formulations Ltd., priority 2006, dated 2008).
Read-outs that look alike come from different tables or passages of the source.

Assays:
[1] = in vivo
[2] = patients with inadequate coronary blood flow
[3] = administration in humans
[4] = oral administration, test animals, at 48 hours
[5] = alkaline and acidic solutions
[6] = in vitro
[7] = clinical trials
[8] = unaffected in placebo group
[9] = elderly subjects

urine levels of creatinine [3]: increases urine levels of creatinine
absorption by the intestine [4]: about 60%
dephosphorylation to creatine ([6]; blood and muscle): less so
14C radio-labeled compound found in skeletal muscle (Guinea-Pig, intravenous, intramuscular and oral administration): Significant amounts
duration of more constant level in the body following administration (oral administration): about 15 hours
time after which level in the body begins to decrease (oral administration): 33 h
SMILES: CN(CCOP(=O)(O)O)C(=N)N [2-(carbamimidoyl-methyl-amino)ethoxyphosphonic acid]
tolerability / side effects [1]: well tolerated and without side effects
cardiac parameters [2]: improve cardiac parameters
stability in solution [5]: stable in both alkaline and acidic solutions
dephosphorylation to creatine ([6]; kidney, intestine and liver): dephosphorylated to creatine to some degree
muscle development and capacity to perform physical activity [7]: improve muscle development and increase the capacity to perform physical activity
hand strength [8]: improved
muscular performance [9]: improved muscular performance
